These results are taken from EP3733658B1, “PRENYLATED BENZOPYRANES AS PPAR AGONISTS” (Universitat de València, priority 2017, dated 2019).

Structures are written as SMILES. Read-outs that look alike come from different tables or passages of the source.

What is called EC50 is the concentration that produces a half-maximal response.

For one data set, the target named is T1, hPPARα (Homo sapiens, UniProt Q07869).
T1 sequence (Q07869 167-468): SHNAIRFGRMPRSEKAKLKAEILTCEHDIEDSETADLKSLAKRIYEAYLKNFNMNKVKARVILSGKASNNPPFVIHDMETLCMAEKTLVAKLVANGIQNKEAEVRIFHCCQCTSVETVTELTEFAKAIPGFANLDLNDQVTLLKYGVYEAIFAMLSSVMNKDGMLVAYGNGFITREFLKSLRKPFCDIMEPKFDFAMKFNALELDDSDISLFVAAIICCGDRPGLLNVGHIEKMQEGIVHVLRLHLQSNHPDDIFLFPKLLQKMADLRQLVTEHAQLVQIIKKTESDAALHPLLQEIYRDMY
In words: PPAR/Gal4 chimera luciferase reporter transactivation assay in transiently transfected Cos-7 cells (hPPARα). As to conditions: for Emax: COS-7, read-out: hPPARα Efficacy (%); for EC50: Cos-7 cells, 24 h, tested 0.001 to 10 µM, read-out: hPPARα EC50; for hPPARα Efficacy (%): maximum activity as percentage of the maximum activity of WY-14643. Type of data set: cell-based. As to the method:
(§1) The cells were maintained under standard culture conditions (Dulbecco modified minimum essential Eagle medium, DMEM) supplemented with 10% fetal calf serum (FCS) at 37°C in 5% […] CO2 atmosphere. The medium was changed every 2 days. The Cos-7 cells were seeded in 60 mm discs at a density of 5.5 × 10^5 cells/disc in DMEM supplemented with 10% FCS and incubated at 37°C for 16 h before transfection. The cells were transfected in DMEM using jetPEI, with reporter (pG5-TK-pGL3) and expression (pGal4-h, hPPARα or hPPARγ) plasmids. The expression plasmid pCMV-β-galactosidase was cotransfected as a control for transfection efficacy. After 16 h the transfection was stopped adding DMEM supplemented with 10% FCS, and the cells were trypsinised and seeded in 96-well plates and incubated for 6 h in DMEM containing 10% FCS. Subsequently, the cells were incubated for 24 h in DMEM containing 0.2% FCS and increasing concentrations of the compounds or the vehicle (DMSO, maximum concentration 0.1%) were tested. Finally, the cells were washed once with PBS cooled on ice, lysed and the luciferase and β-galactosidase assays were performed.
(§2) To evaluate the compounds for PPAR transcriptional activity, the tests were conducted in a PPAR/Gal4 chimera of a human luciferase reporter gene to determine the maximum transactivation response of each compound.
(In general: Reporter assays use an easily measured gene product as a stand-in for the process of interest.)

Another data set addresses T2, hPPARγ (Homo sapiens, UniProt P37231).
T2 sequence (P37231 238-505): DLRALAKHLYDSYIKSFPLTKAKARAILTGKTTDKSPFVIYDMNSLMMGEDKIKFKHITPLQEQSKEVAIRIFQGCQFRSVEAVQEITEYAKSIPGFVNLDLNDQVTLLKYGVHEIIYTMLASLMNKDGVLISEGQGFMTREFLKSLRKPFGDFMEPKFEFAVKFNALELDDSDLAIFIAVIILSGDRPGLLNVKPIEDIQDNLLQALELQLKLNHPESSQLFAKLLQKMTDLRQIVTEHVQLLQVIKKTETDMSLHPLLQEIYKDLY
In words: PPAR/Gal4 chimera luciferase reporter transactivation assay in transiently transfected Cos-7 cells (hPPARγ). Format: cell-based. Conditions: for Emax: COS-7, read-out: hPPARγ Efficacy (%); for hPPARγ Efficacy (%): maximum activity as percentage of the maximum activity of rosiglitazone. The method, then:
as §1, §2

Data set [1] deals with human neutrophils. In words: MTT colorimetric cell viability assay, neutrophils. Type of data set: cell-based. Conditions: 30 µM, 24 h. The method, then:
(§3) To evaluate potential adverse effects (cytotoxicity) of the compounds of the invention, the compounds 1 and 2 for use according to the present invention, compound 8 of the invention, and the reference compounds were evaluated at concentrations of 30 and 100 µM in human neutrophils (Fig. 1A) and primary cultures of human umbilical vein endothelial cells (HUVEC) (Fig. 1B) using two different techniques: MTT colorimetry assay and flow cytometry analysis for cellular apoptosis and survival. In addition, the synthetic compound 9 of the invention was evaluated at 10, 30 and 100 µM (Fig. 2).
(§4) MTT assay. The viability of neutrophils and HUVEC was determined by the MTT colorimetric assay MTT (3(4,5-dimethylthiazol-2-yl)-2,5-diphenyltetrazoyl bromide).
Neutrophils were obtained from the leukocyte-platelet fraction (buffy coats) of healthy donors by centrifuging with Ficoll-Hypaque density gradient.
(§5) 100 µL of neutrophils and HUVEC (2 × 10^5 cells/mL) suspension in supplemented RPMI medium were added to each well of a 96-well plate. The cells were incubated in absence and/or presence of the compounds at 37°C for24h. An MTT solution was prepared (2 mg/mL in PBS). 100 µL of the MTT solution were added to each well and incubated at 37°C for an additional 3 h. The supernatants were discarded and 200 µL of DMSO were added to each well to dissolve the precipitated formazan. The optical densities at two wavelengths (560 and 630 nm) were measured in a spectrophotometer (Infinite M200, Tecan, Mannedorf, Switzerland).

Data set [2] concerns human neutrophils. In words: Annexin V / propidium iodide flow cytometry of apoptosis and survival, neutrophils. Format: cell-based. As to conditions: 100 µM, 24 h, compared to the vehicle. The method, then:
(§6) In addition, the apoptosis and survival rate for human neutrophils and HUVEC was determined by double staining with annexin V and propidium iodide (PI) by flow cytometry.
(§7) Cytofluorometric analysis of apoptosis and survival. The kit FITC Annexin V Apoptosis Detection kit (BD Bioscience, San Jose, CA) was used. The staining protocol and all the reagents were supplied with the commercial kit. HUVEC were separated from the culture flasks by accutase (StemPro® Accutase® Cell dissociation reagent, Thermofischer Scientific Waltham, MA). Both cell types were incubated at 37°C for 24h in the presence or absence of the test compounds. Confluent HUVEC and freshly isolated neutrophils were washed, resuspended in binding buffer 1x (1 × 10^6 cells/mL) and stained with annexin V conjugated with FITC and propidium iodide (PI) as described in the manufacturer's instructions. The cells were analyzed in a BD FACSVerse Flow Cytometer (BD Biosciences, San Jose, CA) and differentiated as early apoptosis cells (annexin V^+ and PI^-), late apoptosis cells and/or necrotic cells (annexin V^+ and PI^+), and live cells (annexin V^- and PI^-).
In general terms: Flow cytometry measures light scatter and fluorescence of single cells or particles in a stream.

The subject of data set [3] is human umbilical vein endothelial cells (HUVEC). In words: MTT colorimetric cell viability assay, HUVEC. As to conditions: 30 µM, 24 h. Format: cell-based. As to the method:
as §3, §4
Human umbilical vein endothelial cells (HUVEC) were isolated with the collagenase treatment and maintained in a human specific endothelial base medium (EBM-2) supplemented with endothelial growth medium (EGM-2) and 10% FCS. Cells of the first passage were cultured until their confluence in 24-well plates. Before starting each experiment, the cells were incubated for 24 h in a medium containing 1% FBS.
as §5

Another data set concerns HUVEC. In words: Annexin V / propidium iodide flow cytometry of apoptosis and survival, HUVEC. Format: cell-based, human. As to conditions: 24 h; for apoptosis and survival: 30 µM; for reduced cell survival: 100 µM. The method, then:
as §6, §7

A short description of data set [4]: Treatment of ob/ob mice: plasma metabolites (cholesterol, HDL-c, triglycerides, free fatty acids, ALT, AST). Format: in vivo. As to conditions: oral, 4 days. As to the method:
[…]. […] […].
Free fatty acids (FFA) in plasma, and the enzymes aspartate aminotransferase (AST) and alanine aminotransferase (ALT) were determined with a colorimetric assay kit (Sigma-Aldrich, Madrid, Spain). In addition the plasma lipid levels for total cholesterol and triglycerides (TG) were measured by enzymatic methods (WAKO, Cape Charles, VA). The concentration of HDLcholesterol (HDL-c) was also determined with the same method used to measure total cholesterol, after precipitating the apolipoprotein-B (apoB) with dextran sulphate/MgCl2 (Sigma-Aldrich, Madrid, Spain) as previously described (Zieske et al., 2005).

The mark [5] stands for this setting: Cos-7 cells, 24 h, tested 0.001 to 10 µM, read-out: hPPARγ EC50.

`CCOC(=O)/C(=C/CC/C(C)=C/CCC1(C)CCc2cc(OCc3ccc(F)cc3)ccc2O1)OCC` (stereo not shown) [Compound 12]: the Emax at hPPARα was found to be 113%; on hPPARγ, 183%. For the same compound, the concentration giving a half-maximal response (EC50) at hPPARγ (setting [5]) stood at 2000 nM.

For the compound `COC(=O)COC(=O)/C(C)=C/CC/C(C)=C/CCC1(C)CCc2cc(OC)cc(C)c2O1` (stereo not shown) [Compound 8], the Emax at hPPARα was 39%; on hPPARγ it was 24%. Also, at hPPARγ (setting [5]), the 50% effective concentration (EC50) turned out to be 12 nM. Further, the “toxicity (MTT)” value (with human neutrophils [1]; in data set [3]) was “showed toxicity” each time. Also, the “effect on cell survival” value in the data set with human neutrophils [2] turned out to be 5.3%. The apoptosis and survival entry with HUVEC is reported as “some significant effects”. Also, in the data set on HUVEC, the reduced cell survival was 61,3%.

On to `C/C(=C\CCC1(C)CCc2cc(OCc3ccccc3)cc(C)c2O1)CC/C=C(\C)C(=O)OCc1ccccc1` (stereo not shown) [Compound 4b], for which the Emax at hPPARα amounted to 28%; at hPPARγ it was 0%.

For `CN(CCOc1ccc(CC2SC(=O)NC2=O)cc1)c1ccccn1` (stereo not shown) [Rosiglitazone, rosiglitazone, reference compound], in the data set with human neutrophils [2], the “effect on cell survival” value was determined as 8.5%. Moreover, in the data set with HUVEC, the apoptosis and survival entry is reported as “some significant effects”; the reduced cell survival is recorded as 79,2%.

Consider `COC(=O)COC(=O)/C(C)=C/CC/C(C)=C/CCC1(C)CCc2cc(OC(=O)c3ccccc3)cc(C)c2O1` (stereo not shown) [Compound 6], for which the Emax at hPPARα amounted to 14%; at hPPARγ, 0%.

Turning to `COc1cc(C)c2c(c1)CCC(C)(CC/C=C(\C)CC/C=C(\C)C(=O)O)O2` (stereo not shown) [Polycerasoidin, 2, polycerasoidin], the Emax at hPPARα turned out to be 82%; on hPPARγ, 55%. The concentration giving a half-maximal response (EC50) on hPPARα and at hPPARγ (setting [5]) was 1000 nM each time. Further, the “toxicity (MTT)” value (in the data set on human neutrophils [1]; in data set [3]) was “showed toxicity” in each case. Besides, in the data set on HUVEC, the apoptosis and survival entry is reported as “some significant effects”. Moreover, in the data set on HUVEC, the reduced cell survival is given as 38,9%.

Consider `CCOC(=O)/C(=C/CC/C(C)=C/CCC1(C)CCc2cc(OCc3ccccc3)ccc2O1)OCC` (stereo not shown) [Compound 10], for which the results for the Emax at hPPARα and at hPPARγ were 60% and 183%, respectively. Besides, the EC50 at hPPARγ (setting [5]) was determined as 2000 nM.

For the compound `Cc1cccc(Nc2cc(Cl)nc(SCC(=O)O)n2)c1C` [WY-14643, reference compound], the “triglyceride levels in plasma (in words)” value in data set [4] is “decrease of triglyceride levels in plasma, although not in a significant manner”. The “increase of total cholesterol levels with respect to the control group” value in data set [4] (plasma, 30 mg/Kg/d) stood at 64%. Further, the “HDL-c with respect to the control group” value in data set [4] (plasma, compound 9 10 and 30 mg/Kg/d, WY-14643 30 mg/Kg/d) is listed as “significantly increased”. Moreover, the “cytotoxicity (MTT)” value with human neutrophils [1] is reported as 9%.

For `COC(=O)C(OC(=O)/C(C)=C/CC/C(C)=C/CCC1(C)CCc2cc(OC)cc(C)c2O1)C(=O)OC` (stereo not shown) [Compound 7], the Emax on hPPARα was determined as 76%; at hPPARγ it was 37%.

On to `CCOC(=O)C(=CCCC1(C)CCc2cc(OCc3ccccc3)ccc2O1)OCC(F)(F)F` (stereo not shown) [Compound 13], for which the “hPPARα Efficacy (%)” value on hPPARα came out at 166%. Further, on hPPARγ, the concentration for a half-maximal effect (EC50) was determined as 400 nM and the “hPPARγ Efficacy (%)” value stood at 39%.

Turning to `CCCOC(=O)/C(C)=C/CC/C(C)=C/CCC1(C)CCc2cc(O)cc(C)c2O1` (stereo not shown) [Compound 3], the values for the Emax at hPPARα and at hPPARγ were 100% and 86%, respectively.

For `COC(=O)C(C)=CCCC(C)=CCCC1(C)CCc2cc(O)cc(C)c2O1` (stereo not shown) [Compound 5], the “hPPARα Efficacy (%)” value at hPPARα is given as 27%. Besides, the concentration for a half-maximal effect (EC50) on hPPARγ (setting [5]) worked out at 574 nM. Also, on hPPARγ, the “hPPARγ Efficacy (%)” value is on record as 35%.

With `CCO/C(=C\CC/C(C)=C/CCC1(C)CCc2cc(OCc3ccccc3)ccc2O1)C(=O)O` (stereo not shown) [Compound 11], the Emax on hPPARα is 96%; on hPPARγ it was 62%. For the same compound, the half-maximal effective concentration (EC50) was determined as 1500 nM on hPPARα and 300 nM on hPPARγ (setting [5]).

Consider `C/C(=C\CCC1(C)CCc2cc(OCC(N)=O)cc(C)c2O1)CC/C=C(\C)C(=O)OCc1ccccc1` (stereo not shown) [Compound 4a], for which the Emax on hPPARα is 18%; at hPPARγ it was 0%.
